This is an account of results in patent US8314089B2, “Substituted pyrazolamides and their use” (AiCuris GmbH & Co. KG, priority 2008, dated 2012).

A word on the IC50: it is the point on the concentration scale where inhibition reaches its midpoint.

The assay concerns HIV. As to the kind of experiment: HIV infection in cell culture (H9 cells, 2% FCS). As to conditions: Human immunodeficiency virus 1, HIV-infected H9 cells, suppression of 50% of virus-induced syncytia. Type of assay: cell-based. On the procedure:
The HIV test is conducted according to the method of Pauswels et al. [cf. Journal of Virological Methods 1988, 20, 309-321], with modifications.
Primary human blood lymphocytes (PBLs) are enriched using Ficoll-Hypaque and stimulated, in RPMI 1640 medium, 20% fetal calf serum, with phytohemagglutinin (90 μg/ml) and interleukin-2 (40 U/ml). For the infection with the infectious HIV, the PBLs are pelletted and the cell pellet is subsequently suspended in 1 ml of a suitable diluted HIV virus adsorption solution and incubated for 1 hour at 37° C. (pellet infection). Unabsorbed virus is subsequently removed by centrifugation, and the infected cells are transferred to test plates (e.g. 96-well microtiter plates), which contain the test substances in a suitable dilution.
Alternatively, for example HIV-susceptible, permanent H9 cells (ATCC or NIAID, USA) are used instead of normal human blood lymphocytes for testing the antiviral effects of the compounds of the invention. Infected H9 cells are grown for test purposes in RPMI 1640 medium, 2% and/or 20% fetal calf serum.
The virus adsorption solution is centrifuged and the infected cell pellet is taken up in growth medium, so as to give 1×10^5 cells per ml. The cells infected in this way are pipetted at approx. 1×10^4 cells/well into the wells of 96-well microtiter plates (pellet infection). Alternatively the HIV is pipetted in separately only after preparation of the substance dilutions in the microtiter plates and after addition of the cells (supernatant infection).
The first vertical row of the microtiter plate contains only growth medium and cells that are not infected, but are otherwise treated exactly as described above (cell control). The second vertical row of the microtiter plate receives only HIV-infected cells (virus control) in growth medium. The other wells contain the compounds of the invention in various concentrations, starting from the wells of the 3rd vertical row of the microtiter plate, from which the test substances are diluted 2^10-fold in 2-fold steps.
Alternatively, supernatant infections are carried out (see above), in which the cells are sown in 96-well plates. The HIV virus is then added in a volume of 50 μl.
The test preparations are incubated at 37° C., until the formation of syncytia that is typical of HIV occurs in the untreated virus control (between day 3 and 6 after infection), which is then evaluated either microscopically or by p24 ELISA detection methods (Vironostika, BioMerieux, The Netherlands) or photometrically or fluorometrically using Alamar Blue indicator dye.
The IC50 values are determined as the concentration of the test substance at which 50% (approx. 20-100 syncytia) of the virus-induced syncytia are suppressed by the treatment with the compound of the invention. The cut-off values are set correspondingly in the ELISA test and in the photometric or fluorometric determination using Alamar Blue. In addition to determination of the antiviral effects, the treated cell cultures are also investigated microscopically with respect to cytotoxic, cytostatic or cytological changes and with respect to solubility. Active compounds that show cell-altering, cytotoxic findings in the concentration range of the activity are not assessed for their antiviral activity.
With `O=C(c1cc(-c2cccc(C(F)(F)F)c2)n(-c2cccc(Cl)c2)n1)N1CCC(O)C1` (centres unmarked) [Example 2], the IC50 is 0.05 µM.

For the compound `O=C(c1cc(-c2cccc(OC(F)(F)F)c2)n(-c2cccc(Cl)c2)n1)N1CCOCC1` [Example 4], the IC50 came to 0.05 µM.

For the compound `O=C(c1cc(-c2cccc(OC(F)(F)F)c2)n(-c2cccc(Cl)c2)n1)N1CCCOCC1` [Example 5], the IC50 worked out at 0.04 µM.

Compound `O=C(c1cc(-c2cccc(OC(F)(F)F)c2)n(-c2cccc(Cl)c2)n1)N1CCSC1` [Example 6] came in with an IC50 of 0.1 µM.

The compound `O=C(c1cc(-c2cccc(OC(F)(F)F)c2)n(-c2cccc(Cl)c2)n1)N1CC[C@@H](O)C1` [Example 10] yielded an IC50 of 0.05 µM.

With `O=CN1CCN(C(=O)c2cc(-c3cccc(SC(F)(F)F)c3)n(-c3cccc(Cl)c3)n2)CC1` [Example 15, 4-{[1-(3-Chlorophenyl)-5-(3-trifluoromethylthiophenyl)-1H-pyrazol-3-yl]carbonyl}-piperazine-1-carbaldehyde], half-maximal inhibition (IC50) was put at 0.15 µM.

As to `N#Cc1cccc(-c2cc(C(=O)N3CCOCC3)nn2-c2cccc(Cl)c2)c1` [Example 32], half-maximal inhibition (IC50) was put at 0.04 µM.

`O=C(c1cc(-c2ccccc2)n(-c2cccc(Cl)c2)n1)N1CCOCC1` [Example 33]: the IC50 came out at 0.05 µM.

For the compound `O=C(c1cc(-c2ccccc2)n(-c2cccc(Cl)c2)n1)N1CCSC1` [Example 34], the IC50 was found to be 0.08 µM.

In the case of `COc1ccc(-c2cc(C(=O)N3CCOCC3)nn2-c2cccc(Cl)c2)cc1OC` [Example 35], the IC50 was found to be 0.1 µM.

With `O=C(c1cc(-c2cccc(C(F)(F)F)c2)n(-c2cccc(Cl)c2)n1)N1CCSC1` [Example 43], half-maximal inhibition (IC50) was put at 0.1 µM.
